Molecular target: T1, Induced myeloid leukemia cell differentiation protein Mcl-1 [172-327] (Homo sapiens, UniProt Q07820)
T1 construct: 172-327
Assay: ITC experiments
Conditions: pH 8; 25 °C
Method: ITC experiments were carried out using iTC200 (Microcal LLC, Northampton, MA, USA) with each of the compounds 1-6 and Mcl-1 protein. The heat of reaction was obtained by making 16 injections (2.4 µL each) of the ligand (final concentration in the syringe of 200 µM in 50 mM Tris, 150 mM NaCl, and 5% DMSO, pH 8.0) into the reaction cell that contained Mcl-1 in the same buffer (final protein concentration of 20 µM). The experiments were done at 25°C and at a stirring speed of 500 rpm. For the control experiment, the sample cell was filled with the assay buffer and the compound solution was added, respectively.

T1 sequence (Q07820 172-327): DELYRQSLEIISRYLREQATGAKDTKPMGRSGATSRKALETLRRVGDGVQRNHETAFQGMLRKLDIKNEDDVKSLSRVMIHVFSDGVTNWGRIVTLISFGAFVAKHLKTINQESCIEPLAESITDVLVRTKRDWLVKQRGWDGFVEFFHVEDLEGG

## Cc1ccc(Sc2ccc3c(c2)C(=O)c2cc(O)c(O)cc2C3=O)cc1
  Kd: 950 nM

## O=C1c2ccc(Br)cc2C(=O)c2cc(O)c(O)cc21
  Kd: 1840 nM

## O=C1c2ccccc2C(=O)c2cc(O)c(O)cc21
  Kd: 1850 nM

## O=C1c2ccc(Sc3ccccc3)cc2C(=O)c2cc(O)c(O)cc21
  Kd: 1470 nM

## CC(C)c1ccc(Sc2ccc3c(c2)C(=O)c2cc(O)c(O)cc2C3=O)cc1
  Kd: 238 nM
